Experimental data taken from US20060089260A1, “Nitrification inhibitor treatment of grazed pasture soils” (priority 2002, published 2006).
Several values for one entry are separate records, joined by “and”; a condition that tells them apart may be missing. Identical values can stand only once.

Columns and labels:
[1] = test system: nitrification in soil; settings: cited from earlier work
[2] = test system: pasture, mixture of perennial ryegrass (Lolium perenne) and white clover (Tifolium repens); experiment: Lysimeter study of pasture yield and pasture N off-take; settings: for Increase in pasture yields: lysimeters
Text: (§1) Lysimeter studies, which are state-of-the-art technology for these investigations, have shown the effectiveness of a nitrification inhibitor, dicyandiamide (DCD), in reducing NO3^−—N leaching from a grazed dairy pasture under irrigation. This example used a free-draining Lismore stony silt loam (Udic Haplustept loamy skeletal) and the pasture was a mixture of perennial ryegrass (Lolium perenne) and white clover (Tifolium repens) but the process is applicable to all temperate soils and animal grazing systems.
(§2) Each treatment had 4 replicates. The treatments were allocated to the lysimeters in a randomised design. The urea application rate of 200 kg N ha^−1 y^−1 was at the higher end of fertilizer N application rates for most farmers in the region. The rates of urea were either split into 8 applications to maximize N efficiency, or 4 applications as a cost cutting measure (i.e. reducing application costs). Urine was applied either in the spring (November) or in the autumn (April) to simulate urine patches deposited in the spring or autumn by a grazing dairy cow. The urine application rate of 1000 kg N ha^−1 was equivalent to the typical N loading rate under a cow urine patch. The combination of urea with urine treatments was included to represent a situation where urea was applied throughout the paddock, and patches of the paddock received cow urine. Two rates of phosphate (P) fertilizer were applied, 45 or 90 kg P ha^−1 y^−1, to represent the range of P application rates used by local dairy farmers. As the purpose of this study was to determine the effectiveness of DCD in reducing NO3^− leaching from grazed pasture soil including cow urine patch areas, DCD was either applied or withheld. The DCD was applied in a liquid form to simulate application in the irrigation water on irrigated dairy farms or by spray vehicle.
(§3) DCD was applied in solution form (100 mL per lysimeter) at the rates of 7.5 kg ha^−1 after each urea application in the same day, or 15 kg ha^−1 immediately after each urine application. The DCD solution was sprayed onto the lysimeters with a watering can, simulating an application by an irrigator or spray vehicle.
The herbage was cut periodically to simulate typical grazing practice. All the harvested herbage was removed and dry matter yield recorded. Herbage nitrogen content was analysed. Following each herbage cut, a specially designed mechanical cow hoof was used to simulate cow treading on the lysimeters. The mechanical hoof is made of stainless steel with identical shape and size as an adult Friesian cow hoof. The hoof is mounted onto a compressed air-ram, which is driven by an air compressor system to provide a treading pressure of 220 kPa to simulate the treading pressure exerted by a cow's hoof during walking. The entire surface of the lysimeters was trodden once following each herbage cut. This was based on the inventors observation of hoof print coverage following each grazing rotation.

[3] = test system: nitrification in soil (oxidation of NH4+ to NO2−); experiment: Potassium, calcium and magnesium leaching losses, paddock-averaged; settings: calculated paddock average
Text: as §1
(§4) Undisturbed soil monolith lysimeters, 50 cm diameter and 70 cm deep, were collected following well-established protocols and procedures that ensure there is minimal disturbance to the soil structure inside. The lysimeters were transported to a lysimeter facility near Lincoln University, using a specially designed trailer with air-bag suspension to minimize disturbance. The gap between the soil core and the metal casing was sealed using petroleum jelly to stop edge-flow effects. The lysimeters were then installed in the field lysimeter facility with the surface of the lysimeters at the same level as that of the surrounding soil surface, in order to maintain normal plant growing conditions.
as §2, §3
(§5) From November to April (late spring to mid autumn), flood irrigation, at 100 mm, was applied to all the lysimeters at about three weekly intervals. The amount of water applied was to represent the average amount of water applied on commercial flood-irrigated dairy farms. Irrigation water was applied using an electronically controlled metering system to deliver the required volume of water to the lysimeters. From May to October (late autumn to mid spring), simulated rainfall was applied at the end of each month (if necessary), to supplement the natural rainfall received in order to equal the 75th percentile of local rainfall records for the same period of the year. This was done to create a so-called ‘worst case scenario’ in terms of rainfall inputs and to ensure a standard condition was achieved.

[4] = test system: nitrification in soil; settings: cited from earlier work; remark: listed apart in the source
[5] = test system: nitrification in soil (oxidation of NH4+ to NO2−); experiment: Lysimeter study of NO3−-N leaching from grazed dairy pasture soil (Lismore stony silt loam); settings: for Total annual NO3−-N leaching loss: lysimeter
Text: as §1, §4, §2
Urea was applied in solid form and was broadcast over the surface of the lysimeters followed by 10 mm of irrigation.
Fresh urine was collected early in the morning during the milking session from Friesian cows, and was analysed and applied to the lysimeters on the same day.
as §3, §5

[6] = test system: nitrification in soil (oxidation of NH4+ to NO2−); experiment: Nitrous oxide emissions from urine-treated lysimeters, closed chamber method; settings: for Total nitrous oxide emission: urine + DCD, standard error of the mean in brackets; for Nitrous oxide (N2O) emissions: with DCD
Description: Nitrous oxide emissions from two treatments were determined using a closed chamber method. The enclosed chamber was fitted on top of the lysimeters inside a rubber ring on top of the lysimeter casing. At each sampling time, 3 samples, 10-15 minutes apart, were taken. Nitrous oxide was analysed using gas chromatography and daily N2O fluxes were calculated based on daily mean temperatures.

[7] = test system: grazed dairy pasture; experiment: Field plot experiment on Temuka soil, pasture response to DCD; settings: for Pasture yield: with DCD applied
Description: A field plot experiment was established on a Temuka soil on the Lincoln University Dairy farm to determine pasture response to DCD applications. A total of six plots, each 100 m^2 in area were set up. Fresh cow urine was collected from dairy cows and was analysed for N concentration. The urine was then applied to eight areas (0.2 m^2 each) within each plot to simulate urine patches deposited by the grazing cow. Urea was applied to the plots as per the rest of the farm at 200 kg N/ha. Phosphate fertilizer (superphosphate) was applied at 45 kg P/ha per year as per the rest of the dairy farm.
Three of the plots received the DCD treatment DCD was applied in a solution form to the whole area of each plot by spray equipment similar to those used to spray other agrochemicals. The DCD was applied twice each year (one in the autumn (May) and one in the spring (August)) at 10-15 kg/ha for each application.
Spray irrigation was applied between spring and autumn when necessary through a central pivot irrigator as per the rest of the dairy farm. Pasture from the simulated urine patch areas and from adjacent non-urine patch areas was cut and removed. Following the pasture cut, the plots were then grazed by dairy cows.
Dry matter yield was recorded from the urine patch and non-urine patch areas (Table 2). Pasture yield was calculated at the paddock scale as described above (Table 2).

SMILES: N#CN=C(N)N [DCD, dicyandiamide]
- Response in pasture yield or N uptake to DCD application ([1]; dairy cattle urine patches, field): no significant response
- Effect on nitrification rate in the soil ([1]; measured in the field): slowed down the nitrification rate in the soil
- Increase in pasture N off-take ([2]; autumn urine treatments): 23%
- Increase in pasture N off-take, annual average ([2]; average of autumn and spring): 16%
- Increase in pasture yields ([2]; autumn urine treatments, average): 49%
- Increase in pasture yields ([2]; spring urine treatments): 17.5%
- Increase in pasture N off-take ([2]; spring urine treatments): 9%
- Annual average increase in pasture production ([2]; treating the whole surface area with DCD): more than 15%
- Pasture production ([2]; with DCD, 11.4 without DCD): 15.0 t ha−1 y−1
- % decrease due to DCD, calcium (Ca2+) leaching [3]: 50%
- % decrease due to DCD, magnesium (Mg2+) leaching [3]: 52%
- % decrease due to DCD, potassium (K+) leaching [3]: 65%
- Leaching losses of magnesium (Mg2+), with DCD ([3]; 25% of area urine patches, 17 without DCD): 8 kg ha−1y−1
- Leaching losses of potassium (K+), with DCD ([3]; 25% of area urine patches, 48 without DCD): 17 kg ha−1y−1
- Leaching losses of calcium (Ca2+), with DCD ([3]; 25% of area urine patches, 213 without DCD): 107 kg ha−1y−1
- Reduction in N leached achieved by applying DCD ([4]; DCD added to dairy farm effluent, repeated, high effluent-N loadings during winter): not sufficient to avert high N losses and environmental damage
- Reduction in the amount of NO3−-N leached ([4]; DCD combined with farm dairy effluent (dirty water)): 18%
- Reduction of NO3−-N leaching, annual average ([5]; average of autumn and spring urine): 59%
- Paddock averaged NO3−-N concentration in the drainage water ([5]; calculated paddock average, urea 200 + grazing, urine patches 25% of paddock, DCD applied): 7.7 mg N L−1
- Leaching losses from paddock (annual NO3−-N) ([5]; calculated paddock average, urea 200 kg N ha−1 y−1 + grazing, urine patches 25% of paddock (3 cows per ha), DCD applied): 46 kg N ha−1 y−1 and 46.1 kg N ha−1 y−1
- Total annual NO3−-N leaching loss ([5]; autumn urine, P 90 treatment, with DCD (Treatment 6), 488 without DCD): 112 kg N ha−1 y−1
- Total annual NO3−-N leaching loss ([5]; urine 1000 kg N ha−1 applied in autumn, with DCD (Treatment 4), 516 without DCD): 128 kg N ha−1 y−1
- Total annual NO3−-N leaching loss ([5]; urine applied in spring, with DCD (Treatment 8), 397 without DCD): 230 kg N ha−1 y−1
- Reductions in the amount of urine N leached ([5]; span spring to autumn urine application): 42.1-76.1%
- Reduction of NO3−-N leaching ([5]; urine-N applied in the autumn, average): 76% and 76.1%
- Reduction of NO3−-N leaching ([5]; urine-N applied in the spring): 42% and 42.1%
- Total nitrous oxide emission ([6]; autumn application, 26.7 (5.9) without DCD): 7.0 (2.3) kg N2O/ha
- Total nitrous oxide emission ([6]; spring application, 18.0 (2.9) without DCD): 4.5 (0.7) kg N2O/ha
- Nitrous oxide (N2O) emissions ([6]; spring urine application, 18.0 without DCD): 4.5 kg N2O—N ha−1
- Nitrous oxide (N2O) emissions ([6]; urine application in autumn, 26.7 without DCD): 7.0 kg N2O—N
- Paddock averaged pasture yield ([7]; field plots, Temuka soil, calculated paddock average, with DCD, 11.1 without DCD): 13.0 t ha−1 y−1
- Pasture yield ([7]; field plots, Temuka soil, non-urine patch areas, 10.3 without DCD): 12.3 t ha−1 y−1
- Pasture yield ([7]; field plots, Temuka soil, urine patch areas, 13.4 without DCD): 15.1 t ha−1 y−1
- Increase of pasture production from the whole of the grazed pasture ([7]; paddock average, Table 2): more than 15%
